Source: paper PMC10794144, “A novel antibiotic class targeting the lipopolysaccharide transporter” (Nature, 2024)
Where two headings read alike, the source gives them in different places.

Tested on: A. baumannii
Assay: microbe, parasite or virus in culture
Conditions: for MIC90 / MIC: Acinetobacter baumannii
Method in brief: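 Values come from CLSI-guided (M07, M100) broth microdilution in CAMHB. Endpoint: lowest concentration halting growth, judged by naked eye or by OD600 plateau.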

C[C@@H](O)[C@H]1C(=O)N2C(C(=O)O)=C(S[C@@H]3CN[C@H](C(=O)N(C)C)C3)[C@H](C)[C@H]12 [meropenem, reference compound]
32 µg/mL: MIC (read-out: MIC 100%, ROB08701, Study LGC284200, 100%) | MIC (read-out: MIC 100%, ROB08702, Study LGC277937, 100%) | MIC (read-out: MIC 100%, ROB08702, Study LGC279800, 100%) | MIC (read-out: MIC 100%, ROB08702, Study LGC282623, 100%) | MIC (read-out: MIC 100%, ROB08702, Study LGC283932, 100%) | MIC (read-out: MIC 100%, ROB08702, Study LGC284200, 100%)
4 µg/mL: MIC (ATCC19606, read-out: MIC 100%, ATCC 19606, Study LGC284879, 100%) | MIC (ATCC19606, read-out: MIC 100%, ATCC 19606, Study LGC285582, 100%) | MIC (ATCC19606, read-out: MIC 100%, ATCC 19606, Study LGC299544, 100%) | MIC (ATCC19606, read-out: MIC 100%, ATCC 19606, Study LGC301026, 100%) | MIC (ATCC19606, read-out: MIC 100%, ATCC 19606, Study ROC013, 100%)
8 µg/mL: MIC (ACC01085 / AR0307, CAMHB, MCPs read at 80% inhibition)
2 µg/mL: MIC (ATCC19606, read-out: MIC 100%, ATCC 19606, Study LGC286210, 100%) | MIC (ATCC19606, read-out: MIC 100%, ATCC 19606, Study LGC293598, 100%) | MIC (ATCC19606, read-out: MIC 100%, ATCC 19606, Study LGC294355, 100%) | MIC (ATCC19606, read-out: MIC 100%, ATCC 19606, Study LGC295147, 100%) | MIC (ATCC19606, read-out: MIC 100%, ATCC 19606, Study LGC296813, 100%) | MIC (ATCC19606, read-out: MIC 100%, ATCC 19606, Study ROC007, 100%) | MIC (ATCC19606, read-out: MIC 100%, ATCC 19606, Study ROC009, 100%) | MIC (ATCC19606, read-out: MIC 100%, ATCC 19606, Study ROC010, 100%) | MIC (read-out: MIC 100%, ROB08701, Study LGC293598, 100%) | MIC (read-out: MIC 100%, ROB08701, Study LGC296813, 100%)
0.12 µg/mL: MIC (ATCCBAA747, ATCC BAA-747, CAMHB, MCPs read at 80% inhibition)
0.25 µg/mL: MIC (ATCC17978, ATCC 17978, CAMHB, MCPs read at 80% inhibition) | MIC (ATCC17978, read-out: MIC 100%, ATCC 17978, Study LGC301026, 100%)
16 µg/mL: MIC (ACC01073, CAMHB, MCPs read at 80% inhibition) | MIC (ROB08708, CAMHB, MCPs read at 80% inhibition) | MIC (read-out: MIC 100%, ROB08702, Study LGC281440, 100%)
64 µg/mL: MIC90 | MIC (read-out: MIC 100%, ROB08702, Study LGC282160, 100%)
0.5 µg/mL: MIC (ATCC17978, ATCC 17978, CAMHB, one replicate, MCPs read at 80% growth inhibition) | MIC (ATCC17978, read-out: MIC 100%, ATCC 17978, Study LGC308175, 100%) | MIC (ATCC19606, read-out: MIC 100%, ATCC 19606, Study LGC282623, 100%) | MIC (ATCC19606, read-out: MIC 100%, ATCC 19606, Study ROC012, 100%) | MIC (read-out: MIC 100%, ROB08701, Study ROC012, 100%)
1 to 64 µg/mL: MIC range (10 MDR isolates, CAMHB, MCPs read at 80% growth inhibition)
1 µg/mL: MIC (ATCC19606, ATCC 19606, CAMHB, MCPs read at 80% growth inhibition) | MIC (ATCC19606, ATCC 19606, CAMHB, MCPs read at 80% inhibition) | MIC (ATCC19606, read-out: MIC 100%, ATCC 19606, Study LGC277937, 100%) | MIC (ATCC19606, read-out: MIC 100%, ATCC 19606, Study LGC279800, 100%) | MIC (ATCC19606, read-out: MIC 100%, ATCC 19606, Study LGC281440, 100%) | MIC (ATCC19606, read-out: MIC 100%, ATCC 19606, Study LGC282160, 100%) | MIC (ATCC19606, read-out: MIC 100%, ATCC 19606, Study LGC283932, 100%) | MIC (ATCC19606, read-out: MIC 100%, ATCC 19606, Study LGC284200, 100%) | MIC (ATCC19606, read-out: MIC 100%, ATCC 19606, Study LGC308175, 100%) | MIC (ATCC19606, read-out: MIC 100%, ATCC 19606, Study ROC003, 100%) | MIC (ATCC19606, read-out: MIC 100%, ATCC 19606, Study ROC004, 100%) | MIC (ATCC19606, read-out: MIC 100%, ATCC 19606, Study ROC005, 100%) | MIC (ATCC19606, read-out: MIC 100%, ATCC 19606, Study ROC006, 100%) | MIC (ATCC19606, read-out: MIC 100%, ATCC 19606, Study ROC008, 100%) | MIC (ROB08701, CAMHB, MCPs read at 80% inhibition) | MIC (read-out: MIC 100%, ROB08701, Study LGC277937, 100%) | MIC (read-out: MIC 100%, ROB08701, Study LGC279800, 100%) | MIC (read-out: MIC 100%, ROB08701, Study LGC281440, 100%) | MIC (read-out: MIC 100%, ROB08701, Study LGC282160, 100%) | MIC (read-out: MIC 100%, ROB08701, Study LGC282623, 100%) | MIC (read-out: MIC 100%, ROB08701, Study LGC283932, 100%) | MIC (read-out: MIC 100%, ROB08701, Study LGC284879, 100%) | MIC (read-out: MIC 100%, ROB08701, Study LGC285582, 100%) | MIC (read-out: MIC 100%, ROB08701, Study LGC286210, 100%) | MIC (read-out: MIC 100%, ROB08701, Study LGC294355, 100%) | MIC (read-out: MIC 100%, ROB08701, Study LGC295147, 100%) | MIC (read-out: MIC 100%, ROB08701, Study LGC299544, 100%) | MIC (read-out: MIC 100%, ROB08701, Study LGC301026, 100%) | MIC (read-out: MIC 100%, ROB08701, Study LGC308175, 100%) | MIC (read-out: MIC 100%, ROB08701, Study ROC003, 100%) | MIC (read-out: MIC 100%, ROB08701, Study ROC004, 100%) | MIC (read-out: MIC 100%, ROB08701, Study ROC005, 100%) | MIC (read-out: MIC 100%, ROB08701, Study ROC006, 100%) | MIC (read-out: MIC 100%, ROB08701, Study ROC007, 100%) | MIC (read-out: MIC 100%, ROB08701, Study ROC008, 100%) | MIC (read-out: MIC 100%, ROB08701, Study ROC009, 100%) | MIC (read-out: MIC 100%, ROB08701, Study ROC010, 100%) | MIC (read-out: MIC 100%, ROB08701, Study ROC013, 100%)
> 16 µg/mL: MIC90 (129 clinical isolates, CAMHB) | MIC (ACC00445, CAMHB, MCPs read at 80% inhibition) | MIC (ACC00535, CAMHB, MCPs read at 80% inhibition) | MIC (ACC01077, CAMHB, MCPs read at 80% inhibition) | MIC (ROB08702, CAMHB, MCPs read at 80% inhibition) | MIC (ROB08703, CAMHB, MCPs read at 80% inhibition) | MIC (ROB08704, CAMHB, MCPs read at 80% inhibition) | MIC (ROB08705, CAMHB, MCPs read at 80% inhibition) | MIC (ROB08706, CAMHB, MCPs read at 80% inhibition) | MIC (ROB08707, CAMHB, MCPs read at 80% inhibition) | MIC (ROB08709, CAMHB, MCPs read at 80% inhibition) | MIC (ROB08710, CAMHB, MCPs read at 80% inhibition)
